Converted amounts (≈) assume the structure as drawn.

One series is described as follows: Solubility. The class given is physicochemical.
The next series addresses CYP3A4 (Homo sapiens, UniProt P08684). The experiment in a line: Metabolic stability (CYP3A4). The note with it: CYP3A4, 1 hr. The class given is in vitro ADME.
Another series in a line: Chemical stability. Type of series: physicochemical. The note with it: after 24 h at pH 7.4.
Another series addresses Nav1.6 (Homo sapiens, UniProt Q9UQD0). The experiment in a line: % block of Nav1.6 at 100 μM and IC50 (NaV1.6). The note with it: comparison compounds; read-out: IC50 (NaV1.6). Type of series: cell-based. The method, boiled down:
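Nav1.6 block recorded as percent inhibition at 100 μM compound; IC50 also reported.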

The nature of series [1]: Tox, comparison compounds (species not stated). Type of series: in vivo.
Series [2] relates to maximal electroshock (MES) seizures. Kind of series: MES test, comparison compounds (species not stated). The class given is in vivo. The text has this:
The MES is a model for generalized tonic-clonic seizures and provides an indication of a compound's ability to prevent seizure spread when all neuronal circuits in the brain are maximally active. These seizures are highly reproducible and are electrophysiologically consistent with human seizures. For an MES test, a drop of anesthetic/electrolyte solution (0.5% tetracaine hydrochloride in 0.9% saline) is applied to the eyes of each animal prior to placement of corneal electrodes Electrical stimulus in the MES test may be 50 mA, 60 Hz, for mice and 150 mA, 60 Hz, for rats delivered for 0.2 s. Abolition of the hindleg tonic extensor component of the seizure was used as the endpoint. Mice may be initially tested at various intervals following various doses, e.g., 30, 100 and 300 mg/kg of test compound given by intraperitoneal (IP) injection while rats are initially screened at a fixed dose of 30 mg/kg

Series [3] has as its system 6 Hz psychomotor seizures. Kind of series: 6 Hz test, comparison compounds (species not stated). As to conditions: species and current not stated. The class given is in vivo. On the procedure: Compounds were tested using a 6 Hz psychomotor seizure test. […] For example, both the MES and scM models are insensitive to levetiracetam, a compound considered potentially useful in the management of refractory seizures. […] Thus, the 6 Hz test can serve as a therapy resistant screening paradigm of acute seizure activity.

The subject of series [4] is Metrazol-induced clonic seizures. Kind of series: scM test, comparison compounds (species not stated). Type of series: in vivo. On the procedure:
Subcutaneous injection of the convulsant Metrazol produces clonic seizures in laboratory animals. […] Animals may be pretreated with various doses of the test compound given by ip injection. At a previously determined TPE (time to peak) of the test compound, the dose of Metrazol which will induce convulsions in 97% of animals (CD97:85 mg/kg mice) may be injected into a loose fold of skin in the midline of the neck. The animals may be placed in isolation cages to minimize stress and observed for the next 30 min for the presence or absence of a seizure. An episode of clonic spasms, approximately 3-5 seconds, of the fore and/or hindlimbs, jaws, or vibrissae may be taken as the endpoint. […] The scM test represents acute animal seizures.

Chain of Nav1.6 (Q9UQD0 whole entry): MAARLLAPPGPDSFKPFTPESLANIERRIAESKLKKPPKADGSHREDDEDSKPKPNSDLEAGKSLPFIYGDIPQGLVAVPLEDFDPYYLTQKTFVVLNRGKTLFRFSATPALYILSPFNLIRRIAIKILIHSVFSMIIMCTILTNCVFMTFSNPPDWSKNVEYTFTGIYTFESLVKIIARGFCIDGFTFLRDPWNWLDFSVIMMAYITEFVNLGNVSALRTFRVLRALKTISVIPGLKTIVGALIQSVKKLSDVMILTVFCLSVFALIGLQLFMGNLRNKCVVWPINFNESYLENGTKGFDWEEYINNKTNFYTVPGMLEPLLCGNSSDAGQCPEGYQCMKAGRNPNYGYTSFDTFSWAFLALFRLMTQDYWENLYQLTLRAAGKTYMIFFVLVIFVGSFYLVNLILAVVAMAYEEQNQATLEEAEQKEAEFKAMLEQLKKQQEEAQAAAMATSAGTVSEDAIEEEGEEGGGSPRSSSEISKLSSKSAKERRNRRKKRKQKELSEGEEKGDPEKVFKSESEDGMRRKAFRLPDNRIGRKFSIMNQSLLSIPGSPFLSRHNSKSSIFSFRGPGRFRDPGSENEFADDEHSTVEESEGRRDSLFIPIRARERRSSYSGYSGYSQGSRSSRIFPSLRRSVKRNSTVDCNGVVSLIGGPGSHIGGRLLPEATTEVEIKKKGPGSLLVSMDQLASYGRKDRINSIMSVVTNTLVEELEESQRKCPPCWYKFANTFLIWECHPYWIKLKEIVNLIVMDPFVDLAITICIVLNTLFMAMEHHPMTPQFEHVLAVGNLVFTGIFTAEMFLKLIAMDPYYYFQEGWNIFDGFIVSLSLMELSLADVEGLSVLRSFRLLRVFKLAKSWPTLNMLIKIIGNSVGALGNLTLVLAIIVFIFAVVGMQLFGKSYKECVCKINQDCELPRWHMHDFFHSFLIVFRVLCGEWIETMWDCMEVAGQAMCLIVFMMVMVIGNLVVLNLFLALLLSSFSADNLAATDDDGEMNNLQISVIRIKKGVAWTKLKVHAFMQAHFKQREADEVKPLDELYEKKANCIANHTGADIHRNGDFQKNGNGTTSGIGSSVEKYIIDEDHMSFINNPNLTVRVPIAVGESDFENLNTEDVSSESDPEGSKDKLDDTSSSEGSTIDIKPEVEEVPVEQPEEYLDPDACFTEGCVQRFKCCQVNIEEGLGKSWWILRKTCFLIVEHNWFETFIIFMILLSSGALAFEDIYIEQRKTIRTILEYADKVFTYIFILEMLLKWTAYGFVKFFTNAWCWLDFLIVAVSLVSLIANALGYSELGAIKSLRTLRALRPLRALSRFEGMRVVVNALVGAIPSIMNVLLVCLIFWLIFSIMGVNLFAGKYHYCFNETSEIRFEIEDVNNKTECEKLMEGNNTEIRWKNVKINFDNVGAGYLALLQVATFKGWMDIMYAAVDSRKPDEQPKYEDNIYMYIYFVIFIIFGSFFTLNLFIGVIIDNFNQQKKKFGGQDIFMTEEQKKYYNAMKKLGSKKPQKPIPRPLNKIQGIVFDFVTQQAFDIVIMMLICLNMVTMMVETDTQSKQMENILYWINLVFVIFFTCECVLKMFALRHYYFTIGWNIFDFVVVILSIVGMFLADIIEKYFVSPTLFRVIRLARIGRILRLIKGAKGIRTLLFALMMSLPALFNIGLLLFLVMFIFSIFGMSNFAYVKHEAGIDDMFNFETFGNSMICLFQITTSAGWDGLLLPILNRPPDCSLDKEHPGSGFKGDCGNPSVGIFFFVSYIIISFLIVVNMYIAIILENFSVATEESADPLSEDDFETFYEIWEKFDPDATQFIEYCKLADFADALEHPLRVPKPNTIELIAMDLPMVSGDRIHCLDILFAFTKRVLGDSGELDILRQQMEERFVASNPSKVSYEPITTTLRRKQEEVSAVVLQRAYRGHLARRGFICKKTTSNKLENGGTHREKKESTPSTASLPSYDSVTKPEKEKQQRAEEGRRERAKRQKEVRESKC
Chain of CYP3A4 (P08684 whole entry, species assumed): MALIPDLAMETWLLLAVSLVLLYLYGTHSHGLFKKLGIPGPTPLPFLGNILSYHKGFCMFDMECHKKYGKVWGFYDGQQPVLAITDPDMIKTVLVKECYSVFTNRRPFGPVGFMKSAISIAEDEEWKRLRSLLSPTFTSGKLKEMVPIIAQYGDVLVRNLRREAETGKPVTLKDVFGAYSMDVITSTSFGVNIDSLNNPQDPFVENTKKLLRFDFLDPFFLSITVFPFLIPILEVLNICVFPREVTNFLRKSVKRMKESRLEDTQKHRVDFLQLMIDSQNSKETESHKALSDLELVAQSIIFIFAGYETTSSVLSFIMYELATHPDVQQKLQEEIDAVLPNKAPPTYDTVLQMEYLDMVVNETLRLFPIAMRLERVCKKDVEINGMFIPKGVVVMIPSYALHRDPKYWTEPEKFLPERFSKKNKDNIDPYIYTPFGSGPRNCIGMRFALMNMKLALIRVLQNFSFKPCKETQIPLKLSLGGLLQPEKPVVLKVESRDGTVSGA

Regarding `c1ccc(-c2c[nH]c(-c3ccccc3)n2)cc1` [MV1115], the solubility (as a rule, how much of the substance goes into solution per volume) came out at 237 µM (≈ 52.2 µg/mL) in “Solubility” (pH 3, aqueous buffer) and 175 µM (≈ 38.5 µg/mL) in the series “Solubility” (pH 7.4, aqueous buffer). The molecule further registered a recovery at 1 hr at CYP3A4 of 87%. Further, the recovery at 24 h in “Chemical stability” was found to be 94%. The half-maximal inhibitory concentration (IC50) (in general, the concentration at which inhibition is half-maximal) on Nav1.6 is 32 µM. The same molecule showed a Tox in series [1] of 126 mg/kg. In addition, the 50% effective dose (ED50) (usually the midpoint of the dose-response relation) in series [2] is 61.7 mg/kg; in series [3] it was 47.2 mg/kg; in series [4], 160 mg/kg.

As for `COc1ccc(-c2nc(-c3ccccc3)c[nH]2)cc1` [MV1118], the Tox in series [1] amounted to 223 mg/kg. For the same molecule, the results for the ED50 in series [2], in series [3] and in series [4] were 46.8 mg/kg, 52.2 mg/kg and 142 mg/kg, respectively.
